Measured values: patent US4273940A, “Bis-(2-benzylaminoethyl)-disulfides” (Abbott Laboratories, priority 1980, dated 1981)
Counter-ions that a name gives are not always drawn. Like-named read-outs stand apart in the source and are kept apart here.

How the values were obtained:
human neutrophils = experiment: inhibition of neutrophil locomotion (intrinsic and chemotactic), in vitro agarose test by the method of Nelson et al.; format: cell-based; conditions: 2 hours at 37° C., duplicate, four donors; for inhibition at 100 µM: 10^-4 molar; for inhibition at 10 µM: 10^-5 molar
Method: The compounds of this invention show marked anti-inflammatory properties as intraperitoneal or oral doses of 25-200 mg./kg. and at intravenous doses of 10 mg./kg. and above. […] The current compounds also are inhibitors of chemotaxis of human neutrophils at molar concentrations of 0.00001-0.0005, causing 50-100% inhibition of intrinsic and chemotactic locomotion of the cells, as established by the method of Nelson et al. in J. Immunol. 115, 1650 (1975).
By carrying out the in vitro test of Nelson et al. referred to above, the neutrophil locomotor response modification caused by the above compounds was established. For this purpose, the compounds were dissolved in both agarose media and the media suspending the cells. The effects of the compounds were determined by comparing te chemotactic and intrinsic locomotion of the cells, both with and without the test compounds after 2 hours of incubation at 37° C. All compounds were evaluated in duplicate against the cells which were from four individual donors.

[1] = system: carrageenin induced hind paw edema; experiment: modification of the carrageenin induced hind paw edema assay (Winter et al.); anti-inflammatory activity; format: in vivo; conditions: for reduction of carrageenin induced swelling (volume): after 3 hours
[2] = system: Type III reactions (reverse passive Arthus lesion); experiment: reverse passive Arthus assay (Carter and Krause); Type III reaction; format: in vivo; conditions: 50 mg./kg. intraperitoneal, group of four animals
Method: Upon intraperitoneal administration to a group of four animals at a dose of 50 mg./kg., the lesion area is inhibited an average of 49% by the compound of Example 1 and 47% by the compound of Example 5.

[3] = read-out: % Inhibition of Locomotion, Chemotactic
[4] = read-out: % Inhibition of Locomotion, Intrinsic

SMILES: Clc1cccc(Cl)c1CNCCSSCCNCc1c(Cl)cccc1Cl [Example 6, bis(2,6-dichlorobenzylaminoethyl)disulfide hydrochloride]
- inhibition at 100 µM (human neutrophils; [3]): 85%
- inhibition at 100 µM (human neutrophils; [4]): 74%

SMILES: Oc1ccccc1CNCCSSCCNCc1ccccc1O [Example 2, bis(2-hydroxybenzylaminoethyl)disulfide]
- inhibition at 100 µM (human neutrophils; [3]): 100%
- inhibition at 100 µM (human neutrophils; [4]): 100%

SMILES: CC(=O)Oc1ccccc1C(=O)O [acetylsalicylic acid, reference compound]
- reduction of carrageenin induced swelling (volume), acetylsalicylic acid ([1]; 50 mg/kg., corresponding measurement (3 hours)): 15.4%

SMILES: CC(C)(C)c1cc(Cl)c(O)c(CNCCSSCCNCc2cc(C(C)(C)C)cc(Cl)c2O)c1 [Example 5, bis(2-hydroxy-3-chloro-5-t-butylbenzylaminoethyl)disulfide]
- inhibition of lesion area (average) [2]: 47%
- inhibition at 100 µM (human neutrophils; [3]): 100%
- inhibition at 100 µM (human neutrophils; [4]): 85%
- inhibition at 10 µM (human neutrophils; [3]): 46%
- inhibition at 10 µM (human neutrophils; [4]): 24%

SMILES: COc1ccccc1CNCCSSCCNCc1ccccc1OC.Cl.Cl [Example 1, bis(2-methoxybenzylaminoethyl)disulfide dihydrochloride]
- inhibition of lesion area (average) [2]: 49%
- inhibition at 100 µM (human neutrophils; [3]): 100%
- inhibition at 100 µM (human neutrophils; [4]): 100%
- inhibition at 10 µM (human neutrophils; [3]): 93%
- inhibition at 10 µM (human neutrophils; [4]): 94%
- reduction of carrageenin induced swelling (volume) ([1]; 25 mg./kg. intraperitoneal): 14.6%
- reduction of carrageenin induced swelling (volume) ([1]; 50 mg./kg. intraperitoneal): 29.9%

SMILES: Cc1cc(C(C)(C)C)cc(CNCCSSCCNCc2cc(C(C)(C)C)cc(C)c2O)c1O [Example 4, bis(2-hydroxy-3-methyl-5-t-butylbenzylaminoethyl)disulfide dihydrochloride]
- inhibition at 100 µM (human neutrophils; [3]): 100%
- inhibition at 100 µM (human neutrophils; [4]): 95%
- inhibition at 10 µM (human neutrophils; [3]): 48%
- inhibition at 10 µM (human neutrophils; [4]): 50%
